Laboratory results published in US11542266B1, “Substituted piperidines as BTK inhibitors” (HAISCO PHARMACEUTICALS PTE. LTD., priority 2019, dated 2023).

Key:
[1] = tested on: OCI-LY10 cells; experiment: Inhibition of cell proliferation, OCI-LY10 cells (Cell Viability Assay, 72 h); type: cell-based; conditions: Homo sapiens
Description: (§1) OCI-LY10 and TMD-8 cells, in the culture medium of RPMI1640+10% FBS, were cultured in an incubator at 37° C. under 5% CO2. Cells were plated in a 96-well plate. Specifically, OCI-LY10 cells were at 10000/well, and TMD-8 cells were at 8000/well, with 90 μL/well. These cells were cultured at 37° C. under 5% CO2 overnight. On the next day, 10 μL of the compounds at different concentrations were added to each well. There were 3 replicate wells for each concentration, and the last column, added with DMSO, was used as a vehicle control group. The cultures were continued for 72 hours at 37° C. under 5% CO2. After 72 hours, 50 μL of detection reagent (Cell Viability Assay, Promega, G7573) was added to each well, and the cultures were uniformly mixed for 2 minutes, and incubated at room temperature for 10 minutes. The fluorescence signal value was measured with an Envision2104 plate reader (PerkinElmer). The inhibition rate was calculated using formula (2), wherein RLUcompound was the readout of the drug treated group, RLUcontrol was the average value of the vehicle control group, and RLUblank was the average value of the cell-free wells. The IC50 value was calculated using GraphPad Prism software. IR (%)=(1−(RLUcompound-RLUblank)/(RLUcontrol-RLUblank))*100% formula (2)

[2] = tested on: SU-DHL-6 cells; experiment: Inhibition of cell proliferation, SU-DHL-6 cells (Cell Viability Assay, 72 h); type: cell-based; conditions: Homo sapiens
Description: SU-DHL-4, Mino, and SU-DHL-6 cells, in the culture medium of RPMI1640+10% FBS, were cultured in an incubator at 37° C. under 5% CO2. Cells were plated in a 96-well plate. Specifically, SU-DHL-4 cells were at 20000/well, Mino and SU-DHL-6 cells were at 5000/well, with 90 μL/well. 10 μL of the compounds at different concentrations were added to each well. There were 3 replicate wells for each concentration, and the last column, added with DMSO, was used as a vehicle control group. The cultures were continued for 72 hours at 37° C. under 5% CO2. After 72 hours, 100 μL of detection reagent (Cell Viability Assay, Promega, G7573) was added to each well, and the cultures were uniformly mixed for 2 minutes, and incubated at room temperature for 10 minutes. The fluorescence signal value was measured with a microplate reader (PHERAstar FSX). The IC50 value of the compound on cell proliferation inhibition was calculated using Origin 9.2 software, and the inhibition rate at the highest concentration of the compound (Max inhi. %) was calculated according to formula (1). Max inhi. %=(1-T72 administration/T72 vehicle)×100 Formula (1).

[3] = tested on: SU-DHL-4 cells; experiment: Inhibition of cell proliferation, SU-DHL-4 cells (Cell Viability Assay, 72 h); type: cell-based, human; conditions: Homo sapiens
How it was run: (§2)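 RPMI1640 + 10% FBS cultures seeded at 20000/well (SU-DHL-4) or 5000/well (Mino, SU-DHL-6), exposed to compound dilutions in triplicate for 72 h at 37 °C, 5% CO2, DMSO vehicle control. Viability read by luminescent reagent; IC50 from dose-response and Max inhi. % = (1 − T72 treated/T72 vehicle)×100 at top concentration.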

[4] = tested on: Mino cells; experiment: Inhibition of cell proliferation, Mino cells (Cell Viability Assay, 72 h); type: cell-based, human; conditions: Homo sapiens
How it was run: as §2

[5] = Pharmacokinetic experiment in rats (i.g. vehicle 0.5% MC); type: in vivo; conditions: Sprague-Dawley (SD), rat, plasma, po, male SD rats; for bioavailability: i.g. 20 mg/kg (0.5% MC) vs i.v. 5 mg/kg; for AUC(0-t): i.g. 20 mg/kg, vehicle 0.5% MC, read-out: AUC0-t
How it was run: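 Male SD rats (200–250 g, 6–8 weeks, n=6 per compound) were dosed once i.v. or intragastrically after a 12–14 h fast and fed 4 h post-dose. Orbital blood was drawn into EDTA-K2 tubes at 0–24 h (from 5 min i.v., from 15 min oral). Plasma was quantified by LC-MS/MS for PK parameters and bioavailability.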

[6] = tested on: TMD-8 cells; experiment: Inhibition of cell proliferation, TMD-8 cells (Cell Viability Assay, 72 h); type: cell-based; conditions: Homo sapiens, TMD8
Description: as §1

[7] = biological target: BTK protein (Mus musculus (Mouse), UniProt P35991); experiment: Detection of BTK protein degradation in spleen of mice; type: in vivo; conditions: po, 72 h, female ICR mice, 3 consecutive days of intragastric administration, read-out: DD50 value of compounds on BTK protein degradation in spleen of mice
Description: Female ICR mice, 6-8 weeks old, were purchased from BEIJING VITAL RIVER LABORATORY ANIMAL TECHNOLOGY CO., LTD, and the experiment was started after 3 days of adaptation. After 3 consecutive days of intragastric administration of different doses of the compound, the spleen of mice was taken, the spleen cells were collected, and RIPA lysis buffer (Beyotime, Cat. P0013B) was added. The cells were lysed on ice for 15 minutes, and centrifuged at 12000 rpm at 4° C. for 10 minutes. The protein sample of the supernatant was collected, and the protein was quantified by using the BCA kit (Beyotime, Cat. P0009), and then the protein was diluted to 0.25 mg/mL. The expressions of BTK (CST, Cat. 8547S) and the internal reference β-actin (CST, Cat. 3700S) were detected using a fully automated western blot quantitative analyzer (Proteinsimple). The expression level of BTK relative to the internal reference was calculated using Compass software, and the DD50 value was calculated using Origen9.2 software according to formula (4). Specifically, the BTKadministration denoted the expression level of BTK in administration groups at different doses, and the BTKvehicle denoted the expression level of BTK in the vehicle control group. BTK %=BTKadministration/BTKvehicle×100 formula (4)

[8] = Pharmacokinetic experiment in rats (i.g. vehicle DMSO/Solutol/PEG-400/SBE-β-CD); type: in vivo; conditions: Sprague-Dawley (SD), rat, plasma, po, male SD rats; for bioavailability: i.g. 20 mg/kg (DMSO/Solutol/PEG-400/SBE-β-CD) vs i.v. 5 mg/kg; for AUC(0-t): i.g. 20 mg/kg, vehicle 5% DMSO + 5% Solutol + 30% PEG-400 + 60% (20%SBE-β-CD)
Description: Objective: In this experiment, a single dose of each test compound was administered to SD rats intravenously and intragastrically, the concentrations of the test compound in plasma of rats were measured, and the pharmacokinetic characteristics and bioavailability of the test compound in rats were evaluated.
Experimental animals: Male SD rats, 200-250 g, 6-8 weeks old, 6 rats/compound. The experimental animals were purchased from CHENGDU DOSSY EXPERIMENTAL ANIMALS CO., LTD.
Experimental method: On the day of the experiment, 6 SD rats were randomly grouped according to their body weight. The animals were fasted with water available for 12 to 14 hours one day before the administration of a test compound, and were fed 4 hours after the administration.
Sampling: Before and after the administration, 0.1 mL of blood was taken from the orbit of the rats under isoflurane anesthesia, and placed in an EDTAK2 centrifuge tube. Centrifugation was carried out at 5000 rpm at 4° C. for 10 min and the plasma was collected.
Time points for plasma collection in G1 group: 0, 5 min, 15 min, 30 min, 1 h, 2 h, 4 h, 6 h, 8 h, and 24 h.
Time points for plasma collection in G2 group: 0, 15 min, 30 min, 1 h, 2 h, 4 h, 6 h, 8 h, and 24 h.
Before analysis and detection, all samples were stored at −80° C. The samples were analyzed quantitatively by LC-MS/MS.

Sequence of BTK protein (P35991 whole entry): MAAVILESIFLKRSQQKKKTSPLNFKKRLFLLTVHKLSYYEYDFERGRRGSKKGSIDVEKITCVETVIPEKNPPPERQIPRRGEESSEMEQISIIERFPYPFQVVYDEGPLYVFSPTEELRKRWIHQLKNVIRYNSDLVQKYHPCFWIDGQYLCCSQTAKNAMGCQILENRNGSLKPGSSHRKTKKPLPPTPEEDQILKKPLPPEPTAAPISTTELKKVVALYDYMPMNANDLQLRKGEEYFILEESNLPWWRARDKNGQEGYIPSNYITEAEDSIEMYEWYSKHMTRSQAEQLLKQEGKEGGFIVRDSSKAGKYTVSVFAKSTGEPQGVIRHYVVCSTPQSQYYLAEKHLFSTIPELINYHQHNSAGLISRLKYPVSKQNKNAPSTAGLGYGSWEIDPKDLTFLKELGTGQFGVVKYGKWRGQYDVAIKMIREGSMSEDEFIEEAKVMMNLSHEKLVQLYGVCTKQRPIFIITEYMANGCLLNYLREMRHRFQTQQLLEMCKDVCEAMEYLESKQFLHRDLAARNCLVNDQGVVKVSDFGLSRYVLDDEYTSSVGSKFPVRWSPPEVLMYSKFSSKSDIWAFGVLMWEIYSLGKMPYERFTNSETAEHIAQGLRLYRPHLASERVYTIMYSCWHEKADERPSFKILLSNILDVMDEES

IC50 [1]	IC50 [2]	IC50 [3]	bioavailability [5]	AUC(0-t) [5]	ED50 [7]	bioavailability [8]	AUC(0-t) [8]	Structure (SMILES)	IC50 [4]	IC50 [6]
					3.8 mg/kg			Nc1ncnc2c1c(-c1ccc(Oc3ccccc3)cc1)nn2C1CCN(C2CCN(C3CN(c4ccc5c(c4)C(=O)N(C4CCC(=O)NC4=O)C5=O)C3)CC2)CC1 (centres unmarked) [Compound 8-1, 5-(3-(4-(4-amino-3-(4-phenoxyphenyl)-1H-pyrazolo[3,4-d]pyrimidin-1-yl)-[1,4′-bipiperidin]-1′-yl)azetidin-1-yl)-2-(2,6-dioxopiperidin-3-yl)isoindoline-1,3-dione]		
4 nM	29 nM	20 nM		218 ± 68 ng·h/mL	1.9 mg/kg			Nc1ncnc2c1c(-c1ccc(Oc3ccccc3)cc1)nn2C1CCN(C2CCN(C3CN(c4ccc5c(c4)C(=O)N(C4CCC(=O)NC4=O)C5=O)C3)CC2F)CC1 (stereo not drawn) [Compound 18-1, cis-5-(3-(4-(4-amino-3-(4-phenoxyphenyl)-1H-pyrazolo[3,4-d]pyrimidin-1-yl)-3′-fluoro-[1,4′-bipiperidin]-1′-yl)azetidin-1-yl)-2-(2,6-dioxopiperidin-3-yl)isoindoline-1,3-dione]	18 nM	8 nM
23 nM		394 nM		1260 ± 117 ng·h/mL				Nc1ncnc2c1c(-c1ccc(Oc3ccccc3)cc1)nn2C1CCN(C2CN(C3CN(c4ccc5c(c4)C(=O)N(C4CCC(=O)NC4=O)C5=O)C3)C2)CC1F (stereo not drawn) [Compound 19-1, trans-5-(3-(4-(4-amino-3-(4-phenoxyphenyl)-1H-pyrazolo[3,4-d]pyrimidin-1-yl)-3-fluoropiperidin-1-yl)-[1,3′-biazetidin]-1′-yl)-2-(2,6-dioxopiperidin-3-yl)isoindoline-1,3-dione]		14 nM

Second part, the compound before the results:

Structure (SMILES)	IC50 [1]	IC50 [2]	IC50 [3]	bioavailability [5]	AUC(0-t) [5]	ED50 [7]	bioavailability [8]	AUC(0-t) [8]	IC50 [4]	IC50 [6]
Nc1ncnc2c1c(-c1ccc(Oc3ccccc3)cc1)nn2C1CCN(C2CCN(C3CN(c4ccc5c(c4)C(=O)N(C4CCC(=O)NC4=O)C5=O)C3)CC2)CC1 (centres unmarked) [Compound 8, 5-(3-(4-(4-amino-3-(4-phenoxyphenyl)-1H-pyrazolo[3,4-d]pyrimidin-1-yl)-[1,4′-bipiperidin]-1′-yl)azetidin-1-yl)-2-(2,6-dioxopiperidin-3-yl)isoindoline-1,3-dione tritrifluoroacetate]	3 nM	399 nM	255 nM	11.8 ± 4.4%	634 ± 238 ng·h/mL				309 nM	22 nM
Nc1ncnc2c1c(-c1ccc(Oc3ccccc3)cc1)nn2C1CCN(C2CN(C3CN(c4ccc5c(c4)C(=O)N([C@@H]4CCC(=O)NC4=O)C5=O)C3)C2)CC1 [Compound 17-a, 5-[3-[3-[4-[4-amino-3-(4-phenoxyphenyl)pyrazolo[3,4-d]pyrimidin-1-yl]-1-piperidyl]azetidin-1-yl]azetidin-1-yl]-2-[(3R)-2,6-dioxo-3-piperidyl]isoindoline-1,3-dione]		524 nM	481 nM			19.8 mg/kg			8 nM	
Nc1ncnc2c1c(-c1ccc(Oc3ccccc3)cc1)nn2C1CCN(C2CN(C3CN(c4ccc5c(c4)C(=O)N([C@H]4CCC(=O)NC4=O)C5=O)C3)C2)CC1 [Compound 17-b, 5-[3-[3-[4-[4-amino-3-(4-phenoxyphenyl)pyrazolo[3,4-d]pyrimidin-1-yl]-1-piperidyl]azetidin-1-yl]azetidin-1-yl]-2-[(3S)-2,6-dioxo-3-piperidyl]isoindoline-1,3-dione]		662 nM	460 nM			2.2 mg/kg			7.2 nM	
Nc1ncnc2c1c(-c1ccc(Oc3ccccc3)cc1)nn2[C@@H]1CCN(C2CCN(C3CN(c4ccc5c(c4)C(=O)N(C4CCC(=O)NC4=O)C5=O)C3)CC2)C[C@H]1F (stereo partly drawn) [Compound 40, 5-(3-((3R,4R)-4-(4-amino-3-(4-phenoxyphenyl)-1H-pyrazolo[3,4-d]pyrimidin-1-yl)-3-fluoro-[1,4′-bipiperidin]-1′-yl)azetidin-1-yl)-2-(2,6-dioxopiperidin-3-yl)isoindoline-1,3-dione]	3 nM	54 nM	74 nM			2.1 mg/kg	17.4 ± 4%	5420 ± 1260 ng·h/mL	7.3 nM	12 nM
Nc1ncnc2c1c(-c1ccc(Oc3ccccc3)cc1)nn2[C@H]1CCN(C2CCN(C3CN(c4ccc5c(c4)C(=O)N(C4CCC(=O)NC4=O)C5=O)C3)CC2)C[C@H]1F (stereo partly drawn) [Compound 42, 5-(3-((3R,4S)-4-(4-amino-3-(4-phenoxyphenyl)-1H-pyrazolo[3,4-d]pyrimidin-1-yl)-3-fluoro-[1,4′-bipiperidin]-1′-yl)azetidin-1-yl)-2-(2,6-dioxopiperidin-3-yl)isoindoline-1,3-dione]	3 nM	177 nM	382 nM			1.9 mg/kg	9.14 ± 2.5%	1200 ± 327 ng·h/mL	15 nM	16 nM
Nc1ncnc2c1c(-c1ccc(Oc3ccccc3)cc1)nn2[C@@H]1CCCN(C(=O)c2cn(CCOCCOCCOCCNc3cccc4c3C(=O)N(C3CCC(=O)NC3=O)C4=O)nn2)C1 (some centres unmarked) [Compound P13I, reference compound]	29 nM	1640 nM	1180 nM	0%			0%		844 nM	104 nM
